Here are results for one molecule from PMC7687371, “Quantitative in Vitro to in Vivo Extrapolation (QIVIVE) for Predicting Reduced Anogenital Distance Produced by Anti-Androgenic Pesticides in a Rodent Model for Male Reproductive Disorders” (Environmental Health Perspectives, 2020).

pIC50: −log10 of the molar value.

For one data set, the target named is T1, androgen receptor (AR) (Homo sapiens, UniProt P10275).
T1 construct: host or cells: AR-EcoScreen cells
T1 sequence (P10275 1-920): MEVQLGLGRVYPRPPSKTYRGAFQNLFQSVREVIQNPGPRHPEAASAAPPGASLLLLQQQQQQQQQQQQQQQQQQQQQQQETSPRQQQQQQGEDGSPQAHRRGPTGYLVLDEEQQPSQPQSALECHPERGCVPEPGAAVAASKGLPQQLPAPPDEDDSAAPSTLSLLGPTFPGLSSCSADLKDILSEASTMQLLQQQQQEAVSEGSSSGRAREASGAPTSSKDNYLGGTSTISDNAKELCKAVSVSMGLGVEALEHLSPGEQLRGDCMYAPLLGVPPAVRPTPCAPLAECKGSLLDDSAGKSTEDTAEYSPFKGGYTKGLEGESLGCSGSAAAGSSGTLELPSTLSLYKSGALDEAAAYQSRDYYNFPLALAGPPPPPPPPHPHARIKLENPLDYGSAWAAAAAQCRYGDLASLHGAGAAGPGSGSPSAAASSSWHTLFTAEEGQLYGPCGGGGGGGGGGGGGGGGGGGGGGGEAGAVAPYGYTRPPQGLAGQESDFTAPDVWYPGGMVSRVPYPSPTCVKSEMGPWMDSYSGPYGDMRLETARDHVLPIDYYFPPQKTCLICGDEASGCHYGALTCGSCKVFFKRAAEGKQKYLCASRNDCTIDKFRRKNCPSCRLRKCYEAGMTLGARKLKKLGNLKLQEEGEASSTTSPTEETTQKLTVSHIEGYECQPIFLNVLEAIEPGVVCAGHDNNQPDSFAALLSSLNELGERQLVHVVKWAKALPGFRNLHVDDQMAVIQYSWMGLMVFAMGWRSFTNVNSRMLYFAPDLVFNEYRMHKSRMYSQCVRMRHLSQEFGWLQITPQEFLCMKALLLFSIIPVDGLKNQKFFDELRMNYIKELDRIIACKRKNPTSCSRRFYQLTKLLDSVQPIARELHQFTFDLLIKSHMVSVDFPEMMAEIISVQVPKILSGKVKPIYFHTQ
The data set is described as follows: AR-EcoScreen androgen receptor transcriptional activation assay (AR antagonism). The data set is classed as cell-based. On the procedure: Experiments were run with three technical replicates and repeated three times. The mean value of technical replicates represents one biological replicate. AR-EcoScreen™ cells (JCRB1328; Japanese Collection of Research Bioresources) were grown in CellBIND® surface cell culture flasks (Corning Inc.) in growth medium consisting of Gibco® Dulbecco’s Modified Eagle’s Medium/F-12 (DMEM/F-12) Nutrient Mixture with L-glutamine and 4-(2-hydroxyethyl)-1-piperazineethanesulfonic acid (HEPES) and without phenol red supplemented with 5% fetal bovine serum (FBS), 1% penicillin-streptomycin, 200μg/mL Zeocin™ selection reagent, and 100μg/mL Hygromycin B (all reagents from Invitrogen, Life Technologies). The cells were incubated at 37°C in a humidified atmosphere of 5% carbon dioxide ( CO2 ) and 95% air. On the day before the experiment, cells were plated in white 96-well plates (Corning Inc.) at a density of 9,000 cells/well in assay medium consisting of Gibco® DMEM/F-12 Nutrient Mixture medium, 1% penicillin-streptomycin, with 5% dextran-coated charcoal-treated FBS (all reagents from Invitrogen, Life Technologies). On the following day, the medium was changed to assay medium containing the known AR agonist R1881 (Perkin Elmer) in 2-fold serial dilutions from 0.008 to 1 nM or the known AR antagonist hydroxyflutamide (CASRN 52806-53-8, Toronto Research Chemicals) in 3-fold serial dilutions from […] together with 0.1 nM R1881. […] The DMSO vehicle concentrations were kept constant in all wells (0.1%). Following approximately 20 h of exposure to test compounds firefly luminescence was measured in a luminometer (LUMIstar® Galaxy, BMG LABTECH) using Dual-Glo® Luciferase Reagent from the Dual-Glo® Luciferase Assay System from Promega. Cell viability was measured by Renilla luminescence using Dual-Glo® Stop & Glo® Reagent from the Dual-Glo® Luciferase Assay System.

The nature of data set [1]: Fetal chemical exposure analysis (LC-QTOF) at GD21. The data set is classed as in vivo, rat. As to conditions: fetal plasma GD21. The method, then:
Dams were decapitated under CO2 /oxygen anesthesia at GD21 and fetuses collected by cesarean section. Prior to decapitation of the fetuses, their BWs and AGDs were recorded. Blood from the dams was collected in heparinized vacutainer tubes, centrifuged at 125×g for 10 min at 4°C to prepare plasma, and, together with the amniotic fluid, frozen directly. Pooled trunk blood from all female and male fetuses of the same litter (female and male blood separately) was collected into heparin-treated capillary tubes approximately 90 min after dosing and the plasma was prepared and stored at −80°C until analysis for pesticides and selected metabolites by liquid chromatography quadrupole time-of-flight mass spectroscopy (LC-QTOF). Details about the LC-QTOF analyses are provided in “Method S1” in Supplemental Material. Amniotic fluid was collected from fetuses by pipetting, pooled within each litter, snap frozen in liquid nitrogen, and subsequently stored at −80 °C .
Method S1. Chemical analysis of pesticide levels
Acetonitrile, methanol, formic acid and 25% ammonium hydroxide, all of LC-MS grade and ethyl acetate were obtained from Sigma Aldrich, Schneldorf, Germany. Isolute bulk C-18 sorbent was obtained from Biotage, Sweden and was washed with acetonitrile and ethyl acetate and dried prior to use. Water was purified on a Milli Q system, Millipore Corporation, US.
Pesticide standards were purchased from Dr. Ehrenstorfer (Augsburg, Germany), LGC-standards (Teddington, Middlesex, UK) and Sigma Aldrich (St. Louis, MO, USA). Acetonitrile used as solvents for the LC-QTOF was LiChrosolv Hypergrade. An ESI-L low concentration tuning mix from Agilent (Santa Clara, CA, USA) was used for tuning of the TOF. A reference solution was prepared containing Purine and HP0921 from Agilent (Santa Clara, CA, USA).
Stock solutions of the pesticides were prepared at 1 mg/ml in acetonitrile, methanol or toluene.
Standard mixtures containing the test compounds were prepared at a concentration of 10 µg/ml acetonitrile and used for preparation of calibration solutions. Isomers eluting very close to each other were avoided in these mixtures. […]
added 200 µl of ice-cold acetonitrile in Eppendorf tubes. Internal standard was added in the form of 10 µl TPP (5 µg/ml) and the extraction was performed by whirl mixing. The tube was then stored on ice for 5 min and then centrifuged at 10,000 x g for 10 min at 4 °C (Ole Dich Instrument, Denmark). An aliquot of the supernatant was transferred to filter vials (0.45 µm) and analysed by […]
Quality control samples were included in each analytical run. These were prepared using the same procedure as for the samples, though using amniotic fluid from untreated control Wistar rats extracted with acetonitrile containing three different levels of the relevant pesticide standards. The resulting spike levels were 0.04, 0.013 and 0.13 µg/ml. […]
fluid or plasma from Sprague Dawley rats was transferred to an Eppendorf vial and added 150 µl of acetonitrile. 50 mg of isolute C-18 sorbent was added to the tube, which was shaken for 5 min, […]
cooled to 4 °C and centrifuged at 10,000 x g for 10 min at 4 °C (Ole Dich Instrument makers, Denmark). 20 µl of the supernatant was transferred to an HPLC vial and mixed with 80 µl of 5%- 75% acetonitrile (this percentage was analyte dependent) prior to analysis by LC-MS.LC -QTOF […]
Pesticide screening was carried out using a liquid chromatography-electrospray ionization-quadrupole-time of flight-mass spectrometer.
The LC system was connected to a Bruker Daltonics, maXis qTOF mass spectrometer equipped with an electrospray ion source operated in positive ion mode (Bruker Daltonics, Bremen, Germany). The ion source settings were: nebulizer pressure 2 bars, drying gas flow 8 l/min, dry gas temperature 200 °C, capillary voltage 2500 V. The scan range was from 80 to 700 m/z with an acquisition rate of 2 Hz. Sodium formate dissolved in 50% 2-propanol was introduced in the ion […]

Data set [2] in a line: PBK model first-order kinetic parameters fitted to in vivo ADME data. The arrangement: species or system rat.
On the set-up of data set [3]: method as in U.S. EPA 2012. As to conditions: EPI Suite, experimental preferred over modeled; ref U.S. EPA 2012; cited from earlier work.

What is called pIC50 is −log10 of the IC50, conventionally taken in molar units. A low value points to a high IC50. The molecule `CONC(=O)Nc1ccc(Cl)c(Cl)c1` [DPMU, 1-(3,4-Dichlorophenyl)-3-methoxyurea] had a pIC50 against androgen receptor (AR) of 5.40. Besides, the “Measured concentration in male fetuses” value in data set [1] (dams dosed linuron 25 mg/kg BW per day) was determined as 5.0 µM; in data set [1] (dams dosed linuron 50 mg/kg BW per day), 9.6 µM; in data set [1] (dams dosed linuron 75 mg/kg BW per day) it was 21.4 µM. Besides, the “Urine excretion rate from kidney (L/h) KUrine” value in data set [2] (PBK model parameter) is on record as 0.05 L/h. In addition, in data set [2] (conversion of parent compound into active metabolite), the “Metabolism rate in liver, Metabolite” value worked out at 0.22 L/h. Further, the “Metabolism rate in liver, Total (L/h) KMetab” value in data set [2] (metabolic clearance, PBK model parameter) was found to be 0.02 L/h. Besides, in data set [3], the “log Kow” value is recorded as 2.70.
